Laboratory results published in patent US20210330611A1, “THERAPY FOR NEUROLOGICAL DISEASES/DISORDERS” (priority 2020, published 2021).
Structures can show the parent of a compound that is named as a salt. Where two headings read alike, the source gives them in different places.

Columns and labels:
[1] = test system: fibrin-induced microglia activation; test: Image-based assay of fibrin-induced microglia activation (HTS and dose response); assay type: cell-based, rat; details: for Fibrin % inhibition / inhibition at 10 µM: primary microglia HTS, fibrin stimulation; for inhibition at 10 µM: Rattus norvegicus, Microglia, read-out: Fibrin % inhibition
primary rat microglia [2] = test: Cell toxicity (dead cells, size <150 μm2) in LPS assay; details: for LPS % cell toxicity: primary microglia HTS, LPS stimulation; for IC50: read-out: Cell Toxicity IC50 (uM) [LPS assay]
primary rat microglia [3] = test: Cell toxicity (dead cells, size <150 μm2) in coated fibrin (cFib) assay; details: for Fibrin % cell toxicity: primary microglia HTS, fibrin stimulation; for IC50: read-out: Cell Toxicity IC50 (uM) [cFib assay];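 for Fibrin % cell toxicity: share of dead cells sized under 150 µm2 at 10 µM in fibrin-stimulated microglia HTS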
[4] = test system: fibrin- and LPS-induced microglia activation; test: cells; assay type: cell-based, rat; details: for Hit: HTS hit classification
[5] = test system: LPS-induced microglia activation; test: Image-based assay of LPS-induced microglia activation (HTS and dose response); assay type: cell-based, rat; details: for LPS % inhibition / inhibition at 10 µM: primary microglia HTS, LPS stimulation; for inhibition at 10 µM: Rattus norvegicus, Microglia, read-out: LPS % inhibition
[6] = increased cell size (>800 μm^2) as marker of activation
[7] = decreased size (<150 μm^2) as marker of toxicity
[8] = quadrant by fibrin and LPS inhibition in HTS of 1907 compounds
[9] = 48 h, increased cell size (>800 μm^2) as marker of activation
[10] = Table 1, dose response 0.001-20 μM, triplicates, primary rat microglia, 48 h, read-out: Fibrin IC50
[11] = dose response, fibrin-induced microglia activation, read-out: Fibrin IC50
[12] = fibrin-induced microglia activation, dose response, read-out: Fibrin IC50 (uM) (Suppl. Table 7)
[13] = HTS of 1907 compounds, quadrant by fibrin and LPS inhibition
[14] = hit classification in microglia HTS
[15] = LPS-induced microglia activation, dose response, read-out: LPS IC50 (uM) (Suppl. Table 7)
[16] = Table 1, dose response 0.001-20 μM, triplicates, primary rat microglia, 48 h, read-out: LPS IC50
[17] = dose response, LPS-induced microglia activation, read-out: LPS IC50
[18] = Table 3, read-out: Fibrin IC50 (uM) (Suppl. Table 7)
[19] = Table 3, read-out: LPS IC50 (uM) (Suppl. Table 7)

N=C(NCCCCCCNC(=N)NC(=N)Nc1ccc(Cl)cc1)NC(=N)Nc1ccc(Cl)cc1
Fibrin % inhibition [1, 6]: 15%
LPS % cell toxicity (primary rat microglia [2]; [7]): 8%
Fibrin % cell toxicity (primary rat microglia [3]; [7]): 1%
Quadrant (FIG. 5b) [4, 8]: Q1
LPS % inhibition [5, 6]: 69%

CSc1ccc2c(c1)C(N1CCN(C)CC1)Cc1ccccc1S2 (centres unmarked)
Fibrin % inhibition [1, 6]: 11%
LPS % cell toxicity (primary rat microglia [2]; [7]): 0%
Fibrin % cell toxicity (primary rat microglia [3]; [7]): 1%
Quadrant (FIG. 5b) [4, 8]: Q4
LPS % inhibition [5, 6]: −5%

CCN(CC)CCNC(=O)c1ccc(NC(C)=O)cc1.Cl
Fibrin % inhibition [1, 6]: −11%
LPS % cell toxicity (primary rat microglia [2]; [7]): 1%
Fibrin % cell toxicity (primary rat microglia [3]; [7]): 0%
Quadrant (FIG. 5b) [4, 8]: Q4
LPS % inhibition [5, 6]: 9%

C[n+]1cc2c3c(ccc2c2ccc4cc5c(cc4c21)OCO5)OCO3
Fibrin % inhibition [1, 6]: 24%
LPS % cell toxicity (primary rat microglia [2]; [7]): 55%
Fibrin % cell toxicity (primary rat microglia [3]; [7]): 0%
Quadrant (FIG. 5b) [4, 8]: Q1
LPS % inhibition [5, 6]: 101%

OC[C@H]1O[C@@H](O[C@@H]2[C@@H](CO)OC(O)(CO)[C@H]2O)[C@H](O)[C@@H](O)[C@H]1O (mixture of isomers) [Lactulose]
inhibition at 10 µM ([1]; activation = cell size >800 μm2): -14%
LPS % cell toxicity (primary rat microglia [2]; toxicity = cell size <150 μm2): 0%
Fibrin % cell toxicity (primary rat microglia [3]; toxicity = cell size <150 μm2): 0%
Quadrant (FIG. 5b) [4, 8]: Q4
inhibition at 10 µM ([5]; 48 h, activation = cell size >800 μm2): 4%

C#C[C@]1(OC(C)=O)CC[C@H]2[C@@H]3CCC4=CC(=NO)CC[C@@H]4[C@H]3CC[C@@]21CC (mixture of isomers) [Norgestimate]
inhibition at 10 µM [1, 6]: -5%
LPS % cell toxicity (primary rat microglia [2]; [7]): 0%
Fibrin % cell toxicity (primary rat microglia [3]; [7]): 0%
Quadrant (FIG. 5b) [4, 8]: Q4
inhibition at 10 µM [5, 9]: 12%

CCCCCCc1ccc(O)cc1O.Nc1c2ccccc2nc2ccccc12 [Acrisorcin, reference compound]
IC50 [1, 10]: 7 µM
IC50 [1, 11]: 7 µM
IC50 [1, 12]: 7 µM
Fibrin % inhibition [1, 6]: 87%
LPS % cell toxicity (primary rat microglia [2]; [7]): 52%
IC50 (primary rat microglia [2]; LPS assay): 6 µM
Fibrin % cell toxicity (primary rat microglia [3]; [7]): 2%
Hit [4]: HIT (Hits were defined as molecules that exhibited greater than 50% inhibition of either fibrin or LPS activation)
Quadrant (FIG. 5b) [4, 13]: Q2
Quadrant (FIG. 5b) ([4]; Table 1, screen at 10 μM): Q2
Cherry-picked Hit (Suppl. Table 7) [4, 14]: HIT (Hits were defined as molecules that exhibited greater than 50% inhibition of either fibrin or LPS activation)
Quadrant (FIG. 5b) [4, 8]: Q2
IC50 [5, 15]: 5 µM
IC50 [5, 16]: 5 µM
IC50 [5, 17]: 5 µM
LPS % inhibition [5, 6]: 113%

CCC(=O)OCC(=O)[C@@]1(OC(=O)CC)[C@H](C)C[C@H]2[C@H]3[C@H]([C@@H](O)C[C@@]21C)[C@@]1(C)C=CC(=O)C=C1C[C@H]3Cl [Alclometazone dipropionate, reference compound]
Fibrin Selectivity (LOG10) [1]: 3.33
IC50 [1, 10]: < 0.001 µM
IC50 [1, 18]: < 0.001 µM
IC50 ([1]; Table 6, read-out: Fibrin IC50 (uM) (Suppl. Table 7)): < 0.001 µM
IC50 [1, 11]: < 0.001 µM
Fibrin Selectivity (LOG10) ([1]; fibrin vs LPS, LOG10, Table 6): 3.33
Fibrin Selectivity ([1]; fibrin vs LPS, Table 6): 2153
IC50 [1, 12]: < 0.001 µM
Fibrin Selectivity ([1]; listed as Alclometazone Dipropion): ≥ 2153
Fibrin Selectivity ([1]; listed as Alclometazone Dipropionate): 2153
Fibrin % inhibition [1, 6]: 105%
LPS % cell toxicity (primary rat microglia [2]; [7]): 2%
IC50 (primary rat microglia [2]; LPS assay): > 20 µM
IC50 (primary rat microglia [2]; LPS assay, Table 6): > 20 µM
IC50 (primary rat microglia [2]; Table 3): > 20 µM
Fibrin % cell toxicity (primary rat microglia [3]; [7]): 2%
IC50 (primary rat microglia [3]; Table 3): > 20 µM
IC50 (primary rat microglia [3]; cFib assay): > 20 µM
IC50 (primary rat microglia [3]; cFib assay, Table 6): > 20 µM
Hit [4]: HIT (Hits were defined as molecules that exhibited greater than 50% inhibition of either fibrin or LPS activation)
Quadrant (FIG. 5b) [4, 13]: Q2
Quadrant (FIG. 5b) ([4]; Table 1, screen at 10 μM): Q2
Cherry-picked Hit (Suppl. Table 7) ([4]; Table 3): HIT (Hits were defined as molecules that exhibited greater than 50% inhibition of either fibrin or LPS activation)
Quadrant (FIG. 5b) ([4]; Table 3, screen at 10 μM): Q2
Cherry-picked Hit (Suppl. Table 7) [4, 14]: HIT (Hits were defined as molecules that exhibited greater than 50% inhibition of either fibrin or LPS activation)
Cherry-picked Hit (Suppl. Table 7) ([4]; microglia HTS, Table 6): HIT (Hits were defined as molecules that exhibited greater than 50% inhibition of either fibrin or LPS activation)
Quadrant (FIG. 5b) ([4]; microglia HTS, Table 6): Q2
Quadrant (FIG. 5b) [4, 8]: Q2
IC50 [5, 15]: 2 µM
IC50 [5, 16]: 2 µM
IC50 [5, 19]: 2 µM
IC50 ([5]; Table 6, read-out: LPS IC50 (uM) (Suppl. Table 7)): 2 µM
IC50 [5, 17]: 2 µM
LPS % inhibition [5, 6]: 82%

CCCCC(CC)CNC(=N)NC(=N)NCCCCCCNC(=N)NC(=N)NCC(CC)CCCC (centres unmarked) [Alexidine Hydrochloride]
inhibition at 10 µM [1, 6]: 108%
LPS % cell toxicity (primary rat microglia [2]; [7]): 9%
Fibrin % cell toxicity (primary rat microglia [3]; [7]): 5%
Quadrant (FIG. 5b) [4, 8]: Q2
inhibition at 10 µM [5, 9]: 120%

CC(=O)[C@@]12O[C@](C)(c3ccccc3)O[C@@H]1C[C@H]1[C@@H]3CCC4=CC(=O)CC[C@]4(C)[C@H]3CC[C@@]12C [Algestone acetophenide, reference compound]
Fibrin Selectivity [1]: 9
Fibrin Selectivity (LOG10) [1]: 0.95
IC50 [1, 10]: 1 µM
IC50 [1, 18]: 1 µM
IC50 [1, 11]: 1 µM
IC50 [1, 12]: 1 µM
Fibrin % inhibition [1, 6]: 62%
LPS % cell toxicity (primary rat microglia [2]; [7]): 2%
IC50 (primary rat microglia [2]; LPS assay): > 20 µM
IC50 (primary rat microglia [2]; Table 3): > 20 µM
Fibrin % cell toxicity (primary rat microglia [3]; [7]): 1%
IC50 (primary rat microglia [3]; Table 3): > 20 µM
IC50 (primary rat microglia [3]; cFib assay): > 20 µM
Hit [4]: HIT (Hits were defined as molecules that exhibited greater than 50% inhibition of either fibrin or LPS activation)
Quadrant (FIG. 5b) [4, 13]: Q2
Quadrant (FIG. 5b) ([4]; Table 1, screen at 10 μM): Q2
Cherry-picked Hit (Suppl. Table 7) ([4]; Table 3): HIT (Hits were defined as molecules that exhibited greater than 50% inhibition of either fibrin or LPS activation)
Quadrant (FIG. 5b) ([4]; Table 3, screen at 10 μM): Q2
Cherry-picked Hit (Suppl. Table 7) [4, 14]: HIT (Hits were defined as molecules that exhibited greater than 50% inhibition of either fibrin or LPS activation)
Quadrant (FIG. 5b) [4, 8]: Q2
IC50 [5, 15]: 9 µM
IC50 [5, 16]: 9 µM
IC50 [5, 19]: 9 µM
IC50 [5, 17]: 9 µM
LPS % inhibition [5, 6]: 61%

CCCCC[C@H](O)/C=C/[C@H]1[C@H](O)CC(=O)[C@@H]1CCCCCCC(=O)O [Alprostadil]
inhibition at 10 µM [1, 6]: 100%
LPS % cell toxicity (primary rat microglia [2]; [7]): 3%
Fibrin % cell toxicity (primary rat microglia [3]; [7]): 9%
Quadrant (FIG. 5b) [4, 8]: Q2
inhibition at 10 µM [5, 9]: 87%

CC(=O)OCC(=O)[C@@]12OC3(CCCC3)O[C@@H]1C[C@H]1[C@@H]3CCC4=CC(=O)C=C[C@]4(C)[C@@]3(F)[C@@H](O)C[C@@]12C [Amcinonide]
inhibition at 10 µM [1, 6]: 112%
LPS % cell toxicity (primary rat microglia [2]; [7]): 6%
Fibrin % cell toxicity (primary rat microglia [3]; [7]): 7%
Quadrant (FIG. 5b) [4, 8]: Q2
inhibition at 10 µM [5, 9]: 119%

Nc1c2ccccc2nc2ccccc12 [Aminacrine]
inhibition at 10 µM [1, 6]: 117%
LPS % cell toxicity (primary rat microglia [2]; [7]): 67%
Fibrin % cell toxicity (primary rat microglia [3]; [7]): 72%
Quadrant (FIG. 5b) [4, 8]: Q2
inhibition at 10 µM [5, 9]: 118%
